Test results from patent publication US20260125375A1 (Pfizer Inc., priority 2022, published 2026).

Legend:
[1] = biological target: T1, C-CBL (residues 46-435) (Homo sapiens, UniProt P22681); test: Ligand Displacement Assay (LDA), HTRF competitive binding against BODIPY-labeled fluorescent tracer, C-CBL; conditions: geometric mean of the number of tests, read-out: C-CBL Ki (nM) GMean
T1 construct: Purified CBL-B (residues 36-427) and C-CBL (residues 46-435) proteins from baculovirus-infected insect cells; made in house; host or cells: baculovirus-infected insect cells
T1 sequence (P22681 46-435): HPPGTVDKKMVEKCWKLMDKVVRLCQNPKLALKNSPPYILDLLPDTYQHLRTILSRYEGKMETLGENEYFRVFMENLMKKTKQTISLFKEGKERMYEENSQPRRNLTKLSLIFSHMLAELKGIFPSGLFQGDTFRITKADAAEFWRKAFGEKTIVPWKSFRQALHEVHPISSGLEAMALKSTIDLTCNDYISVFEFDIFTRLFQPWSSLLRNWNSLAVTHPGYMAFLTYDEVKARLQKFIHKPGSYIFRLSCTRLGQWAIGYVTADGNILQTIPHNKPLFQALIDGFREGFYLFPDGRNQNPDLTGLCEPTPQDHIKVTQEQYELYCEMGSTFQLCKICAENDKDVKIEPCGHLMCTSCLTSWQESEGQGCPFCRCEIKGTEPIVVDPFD
Summary of the method: (§1)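 Terbium-streptavidin donor on BirA-biotinylated, AviTagged protein from baculovirus-infected insect cells; BODIPY tracer as acceptor. Compound titrations were three-fold and duplicated, […] with 2% DMSO final.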

[2] = biological target: T2, WT CBL-B (36-427) (Homo sapiens, UniProt Q13191); test: Surface Plasmon Resonance (SPR) assay, binding affinity and kinetics, CBL-B; conditions: SPR at 10° C., biotinylated WT CBL-B (36-427) on streptavidin chip; geometric mean; read-out: CBL-B SPR Kd (nM) GMean
T2 construct: N-terminal biotinylated WT CBL-B (36-427) and C-CBL (46-435) were captured on a streptavidin (SA) coated sensor chip
Summary of the method: (§2)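 Biotinylated WT CBL-B (36-427) or C-CBL (46-435) captured on streptavidin chip (~5000–6000 RU); binding at 10° C in HEPES buffer pH 7.2 with 2% DMSO. Multi-cycle: 2-fold, 10-point series from 10 or 100 μM, 90 s association. Single-cycle: 3-fold, 6-point, 0.001–1 μM, 120 s association, >5400 s dissociation.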

[3] = biological target: T3, CBL-B (residues 36-427) (Homo sapiens, UniProt Q13191); test: Ligand Displacement Assay (LDA), HTRF competitive binding against BODIPY-labeled fluorescent tracer, CBL-B; conditions: geometric mean of the number of tests, read-out: CBL-B Ki (nM) GMean
T3 construct: Purified CBL-B (residues 36-427) and C-CBL (residues 46-435) proteins from baculovirus-infected insect cells; made in house; host or cells: baculovirus-infected insect cells
Summary of the method: as §1

[4] = biological target: T4, C-CBL (46-435) (Homo sapiens, UniProt P22681); test: Surface Plasmon Resonance (SPR) assay, binding affinity and kinetics, C-CBL; conditions: SPR at 10° C., biotinylated C-CBL (46-435) on streptavidin chip; geometric mean; read-out: C-CBL SPR Kd (nM) GMean
T4 construct: N-terminal biotinylated WT CBL-B (36-427) and C-CBL (46-435) were captured on a streptavidin (SA) coated sensor chip
T4 sequence (P22681 46-435): T1 sequence (P22681 46-435)
Summary of the method: as §2

Compound	Ki [1]	Kd [2]	Ki [3]	Kd [4]
Cn1cnnc1[C@@H](c1cccc(-c2n[nH]c3c(CN4CC(F)C4)nc(C(F)(F)F)cc23)c1)C1CCC1 [Example C106, 3-{3-[(R)-cyclobutyl(4-methyl-4H-1,2,4-triazol-3-yl)methyl]phenyl}-7-[(3-fluoroazetidin-1-yl)methyl]-5-(trifluoromethyl)-1H-pyrazolo[3,4-c]pyridine]	475 nM	5.9 nM	41.6 nM	265 nM
Cn1cnnc1CC1(c2cccc(-c3n[nH]c4c(CN5C[C@@H](F)[C@H](F)C5)nc(C(F)(F)F)cc34)c2)COC1 [Example C66, 7-{[(3R,4R)-3,4-difluoropyrrolidin-1-yl]methyl}-3-(3-{3-[(4-methyl-4H-1,2,4-triazol-3-yl)methyl]oxetan-3-yl}phenyl)-5-(trifluoromethyl)-1H-pyrazolo[3,4-c]pyridine]	112 nM	9.6 nM	20 nM	97 nM
Cn1cnnc1[C@@H](c1cccc(-c2n[nH]c3c(CN[C@@H]4CC[C@@H](O)C4)nc(C(F)(F)F)cc23)c1)C1CCC1 [Example D35]	100 nM	4.4 nM	12.9 nM	152 nM
CN[C@H](C)c1nc(C(F)(F)F)cc2c(-c3cccc(C4(Cc5nncn5C)COC4)c3)n[nH]c12 (single isomer, unassigned) [Example D38]	135 nM	10 nM	34 nM	110 nM
C[C@H](c1nc(C(F)(F)F)cc2c(-c3cccc(C4(Cc5nncn5C)COC4)c3)n[nH]c12)N(C)C (single isomer, unassigned) [Example D40]	98.1 nM	5.5 nM	23.9 nM	88.5 nM
CN(C)c1nc(C(F)(F)F)cc2c(-c3cccc(C4(Cc5nncn5C)COC4)c3)n[nH]c12 [Example J9, N,N-dimethyl-3-(3-{3-[(4-methyl-4H-1,2,4-triazol-3-yl)methyl]oxetan-3-yl}phenyl)-5-(trifluoromethyl)-1H-pyrazolo[3,4-c]pyridin-7-amine]	228 nM	30.1 nM	92.2 nM	244 nM
Cn1cnnc1CC1(c2cccc(-c3n[nH]c4c(CN[C@@H]5CCOC5)nc(C(F)(F)F)cc34)c2)COC1 [Example C59]	171 nM	16.8 nM	45.2 nM	230 nM
Cn1cnnc1CC1(c2cccc(-c3n[nH]c4c(CN5CCNCC5)nc(C(F)(F)F)cc34)c2)COC1 [Example C64, 3-(3-{3-[(4-methyl-4H-1,2,4-triazol-3-yl)methyl]oxetan-3-yl}phenyl)-7-[(piperazin-1-yl)methyl]-5-(trifluoromethyl)-1H-pyrazolo[3,4-c]pyridine]	117 nM	3 nM	31.2 nM	65.2 nM
CC(N)c1nc(C(F)(F)F)cc2c(-c3cccc(C4(Cc5nncn5C)COC4)c3)n[nH]c12 (single isomer, unassigned) [Example K16, (1ξ)-1-[3-(3-{3-[(4-methyl-4H-1,2,4-triazol-3-yl)methyl]oxetan-3-yl}phenyl)-5-(trifluoromethyl)-1H-pyrazolo[3,4-c]pyridin-7-yl]ethan-1-amine]	140 nM	15.7 nM	32 nM	216 nM
CC(N[C@H]1CCOC1)c1nc(C(F)(F)F)cc2c(-c3cccc(C4(Cc5nncn5C)COC4)c3)n[nH]c12 (single isomer, unassigned) [Example C82]	23.3 nM	2.3 nM	5.2 nM	17 nM
CC(CN)c1nc(C(F)(F)F)cc2c(-c3cccc([C@H](c4nncn4C)C4CCC4)c3)n[nH]c12 (single isomer, unassigned) [Example K15]	263 nM	23.9 nM	30.1 nM	452 nM
CCC(c1cccc(-c2n[nH]c3cnc(C(F)(F)F)cc23)c1)c1nncn1C (single isomer, unassigned) [Example A2, 3-{3-[(1ξ)-1-(4-methyl-4H-1,2,4-triazol-3-yl)propyl]phenyl}-5-(trifluoromethyl)-1H-pyrazolo[3,4-c]pyridine]	224 nM	35.8 nM	80.4 nM	251 nM
Cn1cnnc1[C@@H](c1cccc(-c2n[nH]c3c(CN4CC[C@H](O)C4)nc(C(F)(F)F)cc23)c1)C1CCC1 [Example C77, (3S)-1-{[3-{3-[(R)-cyclobutyl(4-methyl-4H-1,2,4-triazol-3-yl)methyl]phenyl}-5-(trifluoromethyl)-1H-pyrazolo[3,4-c]pyridin-7-yl]methyl}pyrrolidin-3-ol]	29.5 nM	2.5 nM	2.4 nM	54.9 nM
Cn1cnnc1CC1(c2cccc(-c3n[nH]c4c(CN[C@@H]5CCC(F)(F)C5)nc(C(F)(F)F)cc34)c2)COC1 [Example C60, (1R)-3,3-difluoro-N-{[3-(3-{3-[(4-methyl-4H-1,2,4-triazol-3-yl)methyl]oxetan-3-yl}phenyl)-5-(trifluoromethyl)-1H-pyrazolo[3,4-c]pyridin-7-yl]methyl}cyclopentan-1-amine]	57.5 nM	5.1 nM	10.7 nM	41.7 nM
Cn1cnnc1[C@@H](c1cccc(-c2n[nH]c3c(CN4CCOCC4)nc(C(F)(F)F)cc23)c1)C1CCC1 [Example D96]	377 nM	5.5 nM	41.9 nM	120 nM
Cn1cnnc1CC1(c2cccc(-c3n[nH]c4c(CN5CCC5)nc(C(F)(F)F)cc34)c2)COC1 [Example C61, 7-[(azetidin-1-yl)methyl]-3-(3-{3-[(4-methyl-4H-1,2,4-triazol-3-yl)methyl]oxetan-3-yl}phenyl)-5-(trifluoromethyl)-1H-pyrazolo[3,4-c]pyridine]	232 nM	12.8 nM	53 nM	99.8 nM
CC(O)c1nc(C(F)(F)F)cc2c(-c3cccc(C4(Cc5nncn5C)COC4)c3)n[nH]c12 (single isomer, unassigned) [Example K11, (1ξ)-1-[3-(3-{3-[(4-methyl-4H-1,2,4-triazol-3-yl)methyl]oxetan-3-yl}phenyl)-5-(trifluoromethyl)-1H-pyrazolo[3,4-c]pyridin-7-yl]ethan-1-ol]	119 nM	11.7 nM	31.2 nM	199 nM
CC(C)NCc1nc(C(F)(F)F)cc2c(-c3cccc(C4(Cc5nncn5C)COC4)c3)n[nH]c12 [Example C53, N-{[3-(3-{3-[(4-methyl-4H-1,2,4-triazol-3-yl)methyl]oxetan-3-yl}phenyl)-5-(trifluoromethyl)-1H-pyrazolo[3,4-c]pyridin-7-yl]methyl}propan-2-amine]	312 nM	61.8 nM	66.6 nM	747 nM
CCNCc1nc(C(F)(F)F)cc2c(-c3cccc(C4(Cc5nncn5C)COC4)c3)n[nH]c12 [Example C56, N-{[3-(3-{3-[(4-methyl-4H-1,2,4-triazol-3-yl)methyl]oxetan-3-yl}phenyl)-5-(trifluoromethyl)-1H-pyrazolo[3,4-c]pyridin-7-yl]methyl}ethanamine]	201 nM	11 nM	43.6 nM	150 nM
